Source: patent US8916708B2, “Urea derivatives and their therapeutic use in the treatment of, inter alia, diseases of the respiratory tract” (Chiesi Farmaceutici S.p.A., priority 2010, dated 2014)

Legend:
[1] = target: T1, Human recombinant p38 enzyme (p38α) (Homo sapiens, UniProt Q16539); assay: p38 Kinase Assay (ATF-2 phosphorylation ELISA); format: biochemical; conditions: 2h pre-incubation with p38 kinase, ATP 250 μM, 1% DMSO; read-out: p38α inhibition (IC50)
T1 construct: purchased Calbiochem 559324; host or cells: E. coli
T1 sequence (Q16539 whole entry): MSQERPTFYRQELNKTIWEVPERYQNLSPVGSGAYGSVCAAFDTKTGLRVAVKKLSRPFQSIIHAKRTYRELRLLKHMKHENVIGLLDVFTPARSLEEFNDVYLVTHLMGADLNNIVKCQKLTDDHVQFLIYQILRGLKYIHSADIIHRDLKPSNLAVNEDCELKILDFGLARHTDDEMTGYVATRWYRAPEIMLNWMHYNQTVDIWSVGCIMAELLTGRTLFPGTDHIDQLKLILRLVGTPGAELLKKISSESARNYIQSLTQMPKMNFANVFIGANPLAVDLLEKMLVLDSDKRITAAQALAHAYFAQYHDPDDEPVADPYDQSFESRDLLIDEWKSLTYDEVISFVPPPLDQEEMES
Description: Human recombinant p38 enzyme expressed in E. coli and activated by incubation with MKK6 enzyme (Calbiochem #559324) is used as source of enzyme activity.
The assay is carried in high binding, clear, flat bottom 96 well assay plates which have been coated with recombinant ATF-2 (Biosource #PHF0043). Test compounds are incubated with p38 kinase for 2h prior to initiating the kinase assay by the addition of ATP to obtain an assay concentration of 250 μM . Phosphorylation of ATF-2 is detected and quantified using an ELISA. This consists of sequential incubation in the presence of anti-phospho-ATF2, biotinylated anti-IgG and streptavidin-HRP. Incubation with an HRP chromogenic substrate (TMB) results in absorbance that is proportional to the amount of phosphorylated substrate produced. Absorbance is detected using a multiwell plate reader.
Compounds are diluted in DMSO prior to addition to assay buffer, the final DMSO concentration in the assay being 1%.
The IC50 is defined as the concentration at which a given compound achieves 50% inhibition of control.

[2] = tested on: LPS activated THP-1 cells (TNFα release); assay: p38 Functional Assay: TNFα release from LPS activated THP-1 cells; format: cell-based; conditions: Homo sapiens, inhibition of TNFα release, 1h pre-treatment then LPS, 0.3% DMSO
Description: Inhibition of cellular p38 depresses the release of TNFα, a functional response which is quantified by measurement of the amount of TNFα in the supernatants of LPS activated THP-1 cells (an immortalised monocytic cell line) or peripheral blood mononuclear cells (PBMC's) isolated from freshly drawn human blood.
Cells seeded in 96 well plates are pre-treated by the addition of p38 inhibitors for 1h followed by addition of lipopolysaccharide (LPS) to activate cytokine production and release. The amount of TNFα released into the cell supernatants is quantified using an R&D Systems enzyme linked immunosorbant assay (ELISA) kit (product DY210) following the manufacturers instructions.
Compounds are diluted in DMSO prior to addition, the final DMSO concentration in the assay being 0.3%. The EC50 is defined as the concentration at which a given compound achieves 50% inhibition of the control.

Structure (SMILES)	IC50 [1] [nM]	EC50 [2] [nM]
Cc1ccc(-n2nc(C(C)(C)C)cc2NC(=O)N[C@@H]2CC[C@H](Oc3ccc4nnc(C(C)C)n4c3)c3ccccc32)cc1 [Example 9, 1-(5-tert-Butyl-2-p-tolyl-2H-pyrazol-3-yl)-3-[(1R,4S)-4-(3-isopropyl-[1,2,4]triazolo[4,3-a]pyridin-6-yloxy)-1,2,3,4-tetrahydro-naphthalen-1-yl]-urea]	100 to 500	–
CC(C)c1nnc2ccc(O[C@@H]3CC[C@H](NC(=O)Nc4cc(C(C)(C)C)on4)c4ccccc43)cn12 (racemic) [Example 6, (+/−) 1-(5-tert-Butyl-isoxazol-3-yl)-3-[4-(3-isopropyl-[1,2,4]triazolo[4,3-a]pyridin-6-yloxy)-cis-1,2,3,4-tetrahydro-naphthalen-1-yl]-urea]	< 10	< 10
Cc1ccc(-n2nc(C(C)(C)C)cc2NC(=O)N[C@H]2CC[C@H](Oc3ccc4nnc(C(C)C)n4c3)c3ccccc32)cc1 (racemic) [Example 2, (+/−) 1-(5-tert-Butyl-2-p-tolyl-2H-pyrazol-3-yl)-3-[4-(3-isopropyl[1,2,4]triazolo[4,3-a]pyridin-6-yloxy)-trans-1,2,3,4-tetrahydro-naphthalen-1-yl]-urea]	< 10	< 10
Cc1ccc(-n2nc(C(C)(C)C)cc2NC(=O)N[C@H]2CC[C@@H](Oc3ccc4nnc(C(C)C)n4c3)c3ccccc32)cc1 (racemic) [Example 1, (+/−) 1-(5-tert-Butyl-2-p-tolyl-2H-pyrazol-3-yl)-3-[4-(3-isopropyl-[1,2,4]-triazolo[4,3-a]pyridin-6-yloxy)-cis-1,2,3,4-tetrahydro-naphthalen-1-yl]-urea]	< 10	< 10
Cc1ccc(-n2nc(C(C)(C)C)cc2NC(=O)N[C@H]2CC[C@@H](Oc3ccc4nnc(C(C)C)n4c3)c3ccccc32)cc1 [Example 10, 1-(5-tert-Butyl-2-p-tolyl-2H-pyrazol-3-yl)-3-[(1S,4R)-4-(3-isopropyl-[1,2,4]triazolo[4,3-a]pyridin-6-yloxy)-1,2,3,4-tetrahydro-naphthalen-1-yl]-urea]	< 10	< 10
Cc1ccc(-n2nc(C(C)(C)C)cc2NC(=O)N[C@H]2CC[C@@H](Oc3ccc4nnc(-c5ccccc5OCc5ccccc5)n4c3)c3ccccc32)cc1 (racemic) [Example 5]	10 to 100	–
Cc1ccc(-n2nc(C(C)(C)C)cc2NC(=O)N[C@H]2CC[C@@H](Oc3ccc4nnc(-c5ccccc5Cl)n4c3)c3ccccc32)cc1 (racemic) [Example 3, (+/−)1-(5-tert-Butyl-2-p-tolyl-2H-pyrazol-3-yl)-3-{4-[3-(2-chloro-phenyI)-[1,2,4]triazolo[4,3-a]pyridin-6-yloxy]-cis-1,2,3,4-tetrahydro-naphthalen-1-yl}-urea]	< 10	< 10
Cc1ccc(-n2nc(C(C)(C)C)cc2NC(=O)N[C@H]2CC[C@@H](Oc3ccc4nnc(-c5ccccc5O)n4c3)c3ccccc32)cc1 (racemic) [Example 7, (+/−) 1-(5-tert-Butyl-2-p-tolyl-2H-pyrazol-3-yl)-3-{4-[3-(2-hydroxy-phenyl) [1,2,4]triazolo[4,3-a]pyridin-6-yloxy]-cis-1,2,3,4-tetrahydro-naphthalen-1-yl}-urea]	< 10	< 10
Cc1ccc(-n2nc(C(C)(C)C)cc2NC(=O)N[C@@H]2CC[C@@H](Oc3ccc4nnc(C(C)C)n4c3)c3ccccc32)cc1 [Example 8, 1-(5-tert-Butyl-2-p-tolyl-2H-pyrazol-3-yl)-3-[(1R,4R)-4-(3-isopropyl-[1,2,4]triazolo[4,3-a]pyridin-6-yloxy)-1,2,3,4-tetrahydro-naphthalen-1-yl]-urea]	100 to 500	–
Cc1ccc(-n2nc(C(C)(C)C)cc2NC(=O)N[C@H]2CC[C@@H](Oc3ccc4nnc(-c5c(Cl)cccc5Cl)n4c3)c3ccccc32)cc1 (racemic) [Example 4, (+/−)1-(5-tert-Butyl-2-p-tolyl-2H-pyrazol-3-yl)-3-{4-[3-(2,6-dichloro-phenyl)[1,2,4]triazolo[4,3-a]pyridin-6-yloxy]-cis-1,2,3,4-tetrahydro-naphthalen-1-yl}-urea]	< 10	< 10

Further lines, results first:

IC50 [1] [nM]	EC50 [2] [nM]	Structure (SMILES)
< 10	< 10	Cc1ccc(-n2nc(C(C)(C)C)cc2NC(=O)N[C@H]2CC[C@H](Oc3ccc4nnc(C(C)C)n4c3)c3ccccc32)cc1 [Example 11, 1-(5-tert-Butyl-2-p-tolyl-2H-pyrazol-3-yl)-3-[(1S,4S)-4-(3-isopropyl-[1,2,4]triazolo[4,3-a]pyridin-6-yloxy)-1,2,3,4-tetrahydro-naphthalen-1-yl]-urea]
< 10	–	Cc1ccc(-n2nc(C(C)(C)C)cc2NC(=O)N[C@H]2C[C@H](Oc3ccc4nnc(C(C)C)n4c3)c3ccccc32)cc1 [Example 13, 1-(5-tert-Butyl-2-p-tolyl-2H-pyrazol-3-yl)-3-[(1S,3S)-3-(3-isopropyl-[1,2,4]triazolo[4,3-a]pyridin-6-yloxy)-indan-1-yl]-urea]
< 10	–	CC(C)c1nnc2ccc(O[C@H]3CC[C@H](NC(=O)Nc4cc(C(C)(C)C)on4)c4ccccc43)cn12 [Example 16, 1-(5-tert-Butyl-isoxazol-3-yl)-3-[(1S,4S)-4-(3-isopropyl-[1,2,4]-triazolo[4,3-a]pyridin-6-yloxy)-1,2,3,4-tetrahydro-naphthalen-1-yl]-urea]
< 10	–	COc1c(NC(=O)N[C@H]2CC[C@H](Oc3ccc4nnc(C(C)C)n4c3)c3ccccc32)cc(C(C)(C)C)cc1NS(C)(=O)=O [Example 17, N-(5-tert-Butyl-3-{3-[(1S,4S)-4-(3-isopropyl-[1,2,4]triazolo[4,3-a]pyridin-6-yloxy)-1,2,3,4-tetrahydro-naphthalen-1-yl]-ureido}-2-methoxy-phenyl)-methanesulfonamide]
< 10	–	COCC(=O)Nc1cc(CO[C@H]2CC[C@H](NC(=O)Nc3cc(C(C)(C)C)nn3-c3ccc(C)cc3)c3ccccc32)ccn1 [Example 22, N-(4-{(1S,4S)-4-[3-(5-tert-Butyl-2-p-tolyl-2H-pyrazol-3-yl)-ureido]-1,2,3,4-tetrahydro-naphthalen-1-yloxymethyl}-pyridin-2-yl)-2-methoxy-acetamide]
500 to 7000	–	Cc1ccc(-n2nc(C(C)(C)C)cc2NC(=O)N[C@H]2C[C@@H](Oc3ccc4nnc(C(C)C)n4c3)c3ccccc32)cc1 [Example 15, 1-(5-tert-Butyl-2-p-tolyl-2H-pyrazol-3-yl)-3-[(1S,3R)-3-(3-isopropyl-[1,2,4]triazolo[4,3-a]pyridin-6-yloxy)-indan-1-yl]-urea]
100 to 500	–	Cc1ccc(-n2nc(C(C)(C)C)cc2NC(=O)N[C@@H]2C[C@@H](Oc3ccc4nnc(C(C)C)n4c3)c3ccccc32)cc1 [Example 12, 1-(5-tert-Butyl-2-p-tolyl-2H-pyrazol-3-yl)-3-[(1R,3R)-3-(3-isopropyl[1,2,4]triazolo[4,3a]pyridin-6-yloxy)-indan-1-yl]urea]
500 to 7000	–	Cc1ccc(-n2nc(C(C)(C)C)cc2NC(=O)N[C@@H]2C[C@H](Oc3ccc4nnc(C(C)C)n4c3)c3ccccc32)cc1 [Example 14, 1-(5-tert-Butyl-2-p-tolyl-2H-pyrazol-3-yl)-3-[(1R,3S)-3-(3-isopropyl-[1,2,4]-triazolo[4,3-a]pyridin-6-yloxy)-indan-1-yl]-urea]
10 to 100	–	Cc1ccc(-n2nc(C(C)(C)C)cc2NC(=O)N[C@H]2CCC[C@H](Oc3ccc4nnc(C(C)C)n4c3)c3ccccc32)cc1 (racemic) [Example 19, (+/−) 1-(5-tert-Butyl-2-p-tolyl-2H-pyrazol-3-yl)-3-[9-(3-isopropyl-[1,2,4]triazolo[4,3-a]pyridin-6-yloxy)-trans-6,7,8,9-tetrahydro-5H-benzocyclohepten-5-yl]-urea]
< 10	–	Cc1ccc(-n2nc(C(C)(C)C)cc2NC(=O)N[C@H]2CC[C@H](Oc3ccc4nnc(-c5ccccc5SCCO)n4c3)c3ccccc32)cc1 [Example 20, 1-(5-tert-Butyl-2-p-tolyl-2H-pyrazol-3-yl)-3-((1S,4S)-4-{3-[2-(2-hydroxy-ethylsulfanyl)-phenyl]-[1,2,4]triazolo[4,3-a]pyridin-6-yloxy}-1,2,3,4-tetrahydro-naphthalen-1-yl)-urea]
10 to 100	–	Cc1ccc(-n2nc(C(C)(C)C)cc2NC(=O)N[C@H]2CCC[C@@H](Oc3ccc4nnc(C(C)C)n4c3)c3ccccc32)cc1 (racemic) [Example 18, (+/−) 1-(5-tert-Butyl-2-p-tolyl-2H-pyrazol-3-yl)-3-[9-(3-isopropyl-[1,2,4]triazolo[4,3-a]pyridin-6-yloxy)-cis-6,7,8,9-tetrahydro-5H-benzocyclohepten-5-yl]-urea]
